Experimental data taken from the NIST ThermoML archive (doi:10.1021/je200121f).

Experiments:
[1] = xn = mol fraction of the nth substance listed; details: for surface tension liquid-gas: Ring tensiometer; for viscosity / speed of sound / mass density: 101 kPa, Liquid; for viscosity: Capillary tube (Ostwald / Ubbelohde) method; for speed of sound: Sing-around technique in a fixed-path interferometer; for mass density: Vibrating tube method
[2] = refractive index (Na D-line) (dimensionless); xn = mol fraction of the nth substance listed; details: 101 kPa, Liquid, Standard Abbe refractometry

C[C@H](O)CN [(2S)-1-amino-2-propanol] + CN1CCCC1=O
Details | mass density, [1] [kg/m3] | refractive index, [2] | speed of sound, [1] [m/s] | surface tension liquid-gas, [1] [mN/m] | viscosity, [1] [mPa·s]
293.15 K, x2 = 0 | 960.8 | 1.448 | 1560.8 | 37.6 | 31.67
293.15 K, x2 = 0.1034 | 968.2 | 1.4503 | 1553.5 | 38.1 | 18.96
293.15 K, x2 = 0.2008 | 975.3 | 1.4523 | 1549.1 | 38.5 | 12.72
293.15 K, x2 = 0.3001 | 982.8 | 1.4545 | 1547.5 | 39 | 8.746
293.15 K, x2 = 0.4002 | 989.5 | 1.4567 | 1546 | 39.5 | 7.694
293.15 K, x2 = 0.4978 | 996.5 | 1.4585 | 1546.2 | 40 | 6.542
293.15 K, x2 = 0.5943 | 1003.3 | 1.4607 | 1547.4 | 40.7 | 5.578
293.15 K, x2 = 0.7 | 1010.9 | 1.4632 | 1550.9 | 41.2 | 4.249
293.15 K, x2 = 0.7993 | 1018.1 | 1.4655 | 1554.8 | 41.5 | 3.533
293.15 K, x2 = 0.8913 | 1025 | 1.4675 | 1559.4 | 42.1 | 3.098
303.15 K, x2 = 0 | 952.8 | 1.4442 | 1528.3 | 36.9 | 17.71
303.15 K, x2 = 0.1034 | 960 | 1.4464 | 1519.6 | 37.3 | 11.49
303.15 K, x2 = 0.2008 | 966.9 | 1.4484 | 1514.7 | 37.8 | 8.051
303.15 K, x2 = 0.3001 | 974.2 | 1.4505 | 1511.8 | 38.3 | 5.78
303.15 K, x2 = 0.4002 | 980.8 | 1.4527 | 1510 | 38.8 | 5.21
303.15 K, x2 = 0.4978 | 987.7 | 1.4547 | 1509.4 | 39.2 | 4.723
303.15 K, x2 = 0.5943 | 994.5 | 1.4567 | 1510.3 | 39.5 | 4.271
303.15 K, x2 = 0.7 | 1002 | 1.4591 | 1512.8 | 40.1 | 3.395
303.15 K, x2 = 0.7993 | 1009.2 | 1.4614 | 1516.8 | 40.7 | 2.909
303.15 K, x2 = 0.8913 | 1016.1 | 1.4635 | 1520.6 | 41 | 2.576
313.15 K, x2 = 0 | 944.7 | 1.4401 | 1495.7 | 36.3 | 10.65
313.15 K, x2 = 0.1034 | 951.7 | 1.4423 | 1486 | 36.8 | 7.301
313.15 K, x2 = 0.2008 | 958.4 | 1.4445 | 1480.5 | 37.3 | 5.308
313.15 K, x2 = 0.3001 | 965.6 | 1.4464 | 1476.6 | 37.7 | 4.045
313.15 K, x2 = 0.4002 | 972.1 | 1.4488 | 1474.8 | 38.1 | 3.725
313.15 K, x2 = 0.4978 | 978.8 | 1.4506 | 1472.8 | 38.7 | 3.448
313.15 K, x2 = 0.5943 | 985.6 | 1.4528 | 1473.5 | 39 | 3.375
313.15 K, x2 = 0.7 | 993.1 | 1.4548 | 1475.4 | 39.5 | 2.775
313.15 K, x2 = 0.7993 | 1000.3 | 1.4572 | 1479.1 | 40.2 | 2.458
313.15 K, x2 = 0.8913 | 1007.2 | 1.4594 | 1482.6 | 40.4 | 2.168
323.15 K, x2 = 0 | 936.5 | 1.436 | 1462.9 | 35.9 | 6.961
323.15 K, x2 = 0.1034 | 943.2 | 1.4382 | 1452.1 | 36.2 | 4.793
323.15 K, x2 = 0.2008 | 949.8 | 1.4401 | 1446 | 36.6 | 3.499
323.15 K, x2 = 0.3001 | 956.9 | 1.4421 | 1441.6 | 37.1 | 2.939
323.15 K, x2 = 0.4002 | 963.3 | 1.4442 | 1440.5 | 37.6 | 2.649
323.15 K, x2 = 0.4978 | 969.9 | 1.4464 | 1436.8 | 38 | 2.438
323.15 K, x2 = 0.5943 | 976.7 | 1.4482 | 1436.8 | 38.4 | 2.731
323.15 K, x2 = 0.7 | 984.2 | 1.4506 | 1438.4 | 38.8 | 2.317
323.15 K, x2 = 0.7993 | 991.4 | 1.4529 | 1441.7 | 39.2 | 2.073
323.15 K, x2 = 0.8913 | 998.2 | 1.4552 | 1445.1 | 39.5 | 1.861
